One data set concerns the target T1, JAK1 (h) (Homo sapiens, UniProt P23458).
T1 construct: purchased Millipore UK Ltd (contract assay service)
The data set can be described thus: JAK1 (h) kinase assay. The data set is classed as biochemical. The method, then: (§1) The above assay procedure can be used to determine the IC50 for inhibition and/or the inhibition constant, Ki. The IC50 is defined as the concentration of compound required to reduce the enzyme activity by 50% under the condition of the assay. The IC50 value is estimated by preparing a 10 point curve using a ½ log dilution series (for example, a typical curve may be prepared using the following compound concentrations: 3 μM, 1 μM, 0.3 μM, 0.1 μM, 0.03 μM, 0.01 μM, 0.003 μM, 0.001 μM, 0.0003 μM and 0 μM).
JAK1 (h) is incubated with 20 mM Tris/HCl pH 7.5, 0.2 mM EDTA, 500 μM GEEPLYWSFPAKKK, 10 mM MgAcetate and [γ-^33P-ATP] (specific activity approx. 500 cpm/pmol, concentration as required). The reaction is initiated by the addition of the MgATP mix. After incubation for 40 minutes at room temperature, the reaction is stopped by the addition of 3% phosphoric acid solution. 10 μL of the reaction is then spotted onto a P30 filtermat and washed three times for 5 minutes in 75 mM phosphoric acid and once in methanol prior to drying and scintillation counting.
(§2) The kinase assays described herein were performed at Millipore UK Ltd, Dundee Technology Park, Dundee DD2 1SW, UK.

In the next data set the target is T2, JAK2 (h) (Homo sapiens, UniProt O60674).
T2 construct: purchased Millipore UK Ltd (contract assay service)
T2 sequence (O60674 whole entry): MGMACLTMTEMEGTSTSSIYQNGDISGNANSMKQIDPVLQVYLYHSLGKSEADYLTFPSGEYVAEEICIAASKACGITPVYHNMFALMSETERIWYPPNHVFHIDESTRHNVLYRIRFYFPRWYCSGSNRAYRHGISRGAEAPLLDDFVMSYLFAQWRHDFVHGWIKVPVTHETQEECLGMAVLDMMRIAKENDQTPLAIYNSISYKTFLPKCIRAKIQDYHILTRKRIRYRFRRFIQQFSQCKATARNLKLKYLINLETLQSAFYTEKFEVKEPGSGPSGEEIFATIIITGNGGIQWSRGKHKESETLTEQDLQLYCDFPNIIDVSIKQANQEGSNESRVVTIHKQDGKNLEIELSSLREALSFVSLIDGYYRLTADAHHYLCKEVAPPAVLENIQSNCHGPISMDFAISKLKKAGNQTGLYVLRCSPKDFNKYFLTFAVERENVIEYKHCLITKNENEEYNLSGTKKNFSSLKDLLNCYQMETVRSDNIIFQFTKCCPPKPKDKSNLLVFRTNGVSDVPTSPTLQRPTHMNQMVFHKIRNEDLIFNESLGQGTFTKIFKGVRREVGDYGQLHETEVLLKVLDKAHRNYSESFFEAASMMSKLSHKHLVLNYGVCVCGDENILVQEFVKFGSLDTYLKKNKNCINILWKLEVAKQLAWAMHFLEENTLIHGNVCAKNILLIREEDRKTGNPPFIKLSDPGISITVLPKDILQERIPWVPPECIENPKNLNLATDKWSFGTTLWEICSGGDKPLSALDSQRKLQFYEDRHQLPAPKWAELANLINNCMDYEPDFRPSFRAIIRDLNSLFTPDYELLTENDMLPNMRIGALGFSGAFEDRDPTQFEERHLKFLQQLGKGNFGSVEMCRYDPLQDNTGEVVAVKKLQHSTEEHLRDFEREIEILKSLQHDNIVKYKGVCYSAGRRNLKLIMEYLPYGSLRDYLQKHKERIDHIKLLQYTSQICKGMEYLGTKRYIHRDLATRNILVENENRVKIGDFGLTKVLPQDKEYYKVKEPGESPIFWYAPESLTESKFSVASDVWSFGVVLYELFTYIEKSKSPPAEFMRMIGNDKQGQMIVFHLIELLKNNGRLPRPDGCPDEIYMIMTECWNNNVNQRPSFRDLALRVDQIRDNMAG
The data set can be described thus: JAK2 (h) kinase assay. Type of data set: biochemical. The method, then: as §1
JAK2 (h) is incubated with 8 mM MOPS pH 7.0, 0.2 mM EDTA, 100 μM […], 10 mM MgAcetate and [γ-^33P-ATP] (specific activity approx. 500 cpm/pmol, concentration as required). The reaction is initiated by the addition of the MgATP mix. After incubation for 40 minutes at room temperature, the reaction is stopped by the addition of 3% phosphoric acid solution. 10 μL of the reaction is then spotted onto a P30 filtermat and washed three times for 5 minutes in 75 mM phosphoric acid and once in methanol prior to drying and scintillation counting.
as §2

Data set [1] can be described thus: Compound stability in human liver microsomes. The data set is classed as in vitro ADME. The method, then: (§3) Human or rat liver microsomes incubations were conducted in duplicate in polypropylene tubes. The typical incubation mixtures consisted of human or rat liver microsomes (0.5 mg protein/mL), compounds of interest (5 μM) and NADPH (1.0 mM) in a total volume of 200 μL potassium phosphate buffer (PBS, 100 mM, pH 7.4). Compounds were dissolved in DMSO and diluted with PBS such that the final concentration of DMSO was 0.05%. The enzymatic reactions were commenced with the addition of protein after a 3-min preincubation and incubated in a water bath open to the air at 37° C. Reactions were terminated at various time points (0, 5, 10, 15, 30, 60 min) by adding equal volume of ice-cold acetonitrile. The samples were stored at −80° C. until LC/MS/MS assays.
(§4) The concentrations of compounds in the incubation mixtures of human or rat liver microsomes were determined by a LC/MS/MS method. The ranges of the linearity in the concentration range were determined for each tested compounds.
(§5) A parallel incubation was performed using denatured microsomes as the negative control, and reactions were terminated at various time points (0, 15, 60 min) after incubation at 37° C.
(§6) Verapamil (1 μM) was selected as the positive control, and reactions were terminated at various time points (0, 5, 10, 15, 30, 60 min) after incubation at 37° C. Both positive and negative control samples were included in each assay to ensure the integrity of the microsomal incubation system.
(§7) In addition, the stability date of compound in human and rat liver microsomes was also obtained through the following method. Human or rat liver microsomes incubations were conducted in duplicate in polypropylene tubes. The typical incubation mixtures consisted of human or rat liver microsomes (0.5 mg protein/mL), compounds of interest (1.5 μM) and EDTA (1.0 mM) in a total volume of 30 μL potassium phosphate buffer (PBS, 100 mM, pH 7.4). Compounds were dissolved in DMSO and diluted with PBS such that the final concentration of DMSO was 0.2%. The enzymatic reactions were commenced with the addition of 15 μL NADPH (final concentration: 2 mM) after a 10-min preincubation and incubated in a water bath open to the air at 37° C. Reactions were terminated at various time points (0, 15, 30, 60 min) by adding 135 μL acetonitrile (contain IS). The samples were centrifuged at 4000 rpm for 10 min to remove protein, the supernatant was stored at −80° C. until LC/MS/MS assays. Ketanserin (1 μM) was selected as the positive control, and reactions were terminated at various time points (0, 15, 30, 60 min) after incubation at 37° C. Both positive and negative control samples were included in each assay to ensure the integrity of the microsomal incubation system.
(§8) The concentrations of compounds in human or rat liver microsome incubations were plotted as a percentage of the relevant zero time point control for each reaction. The in vivo CLint were extrapolated (ref.: Naritomi, Y.; Terashita, S.; Kimura, S.; Suzuki, A.; Kagayama, A.; and Sugiyama, Y.; Prediction of human hepatic clearance from in vivo animal experiments and in vitro metabolic studies with liver microsomes from animals and humans. Drug Metab. Dispos., 2001, 29: 1316-1324).
On the technique in general: Microsomes from liver hold many membrane-bound enzymes, among them those of drug oxidation.

Data set [2] can be described thus: Compound stability in rat liver microsomes. Type of data set: in vitro ADME. The method, then: as §3, §4, §5, §6, §7, §8
A short description of data set [3]: Pharmacokinetics after intravenous and oral administration in rats. Type of data set: in vivo. The method, then:
The LC/MS/MS system used in the analysis consists of an Agilent 1200 Series vacuum degasser, binary pump, well-plate autosampler, thermostatted column compartment, the Agilent G6430 Triple Quadrupole Mass Spectrometer with an electrosprayionization (ESI) source. Quantitative analysis was carried out using MRM mode. The parameters for MRM transitions are in the Table A.
An Agilent XDB-C18, 2.1×30 mm, 3.5 μM column was used for the analysis. 5 μL of the samples were injected. Analysis condition: The mobile phase was 0.1% formic acid in water (A) and 0.1% formic acid in methanol (B). The flow rate was 0.4 mL/min. And the gradient of Mobile phase was in the Table B.
Alternatively, an Agilent 6330 series LC/MS/MS spectrometer equipped with G1312A binary pumps, a G1367A autosampler and a G1314C UV detector were used in the analysis. An ESI source was used on the LC/MS/MS spectrometer. The analysis was done in positive ion mode as appropriate and the MRM transition for each analyte was optimized using standard solution. A Capcell MP-C18 100×4.6 mm I.D., […] column (Phenomenex, Torrance, Calif., USA) was used during the analysis. The mobile phase was 5 mM ammonia acetate, 0.1% MeOH in water (A): 5 mM ammonia acetate, 0.1% MeOH in acetonitrile (B) (70:30, v/v). The flow rate was 0.6 mL/min. Column was maintained at ambient temperature. 20 μL of the samples were injected.
The compounds disclosed herein are assessed in pharmacokinetic studies in mice, rats, dogs or monkeys. The compounds are administered as a water solution, 2% HPMC+1% TWEEN®80 in water solution, 5% DMSO+5% solutol in saline, 4% MC suspension or capsule. For the intravenous administration, the animals are generally given at 1 or 2 mg/kg dose. For the oral (p.o.) dosing, mice and rats are generally given 5 or 10 mg/kg dose, and dogs and monkeys are generally given 10 mg/kg dose. The blood samples (0.3 mL) are drawn at 0.25, 0.5, 1.0, 2.0, 3.0, 4.0, 6.0, 8.0, 12 and 24 h time points or 0.083, 0.25, 0.5, 1.0, 2.0, 4.0, 6.0, 8.0 and 24 h time points and centrifuged at 3,000 or 4000 rpm for 2 to 10 min. The plasma solutions are collected, and stored at −20° C. or −70° C. until analyzed by LC/MS/MS as described above.

The mark [4] stands for this setting: pH 7.4, in vivo CLint extrapolated.
[5] abbreviates: rat, plasma, iv dosing, 1 mg/kg.

Molecules are shown by their SMILES.

T1 sequence (P23458 whole entry): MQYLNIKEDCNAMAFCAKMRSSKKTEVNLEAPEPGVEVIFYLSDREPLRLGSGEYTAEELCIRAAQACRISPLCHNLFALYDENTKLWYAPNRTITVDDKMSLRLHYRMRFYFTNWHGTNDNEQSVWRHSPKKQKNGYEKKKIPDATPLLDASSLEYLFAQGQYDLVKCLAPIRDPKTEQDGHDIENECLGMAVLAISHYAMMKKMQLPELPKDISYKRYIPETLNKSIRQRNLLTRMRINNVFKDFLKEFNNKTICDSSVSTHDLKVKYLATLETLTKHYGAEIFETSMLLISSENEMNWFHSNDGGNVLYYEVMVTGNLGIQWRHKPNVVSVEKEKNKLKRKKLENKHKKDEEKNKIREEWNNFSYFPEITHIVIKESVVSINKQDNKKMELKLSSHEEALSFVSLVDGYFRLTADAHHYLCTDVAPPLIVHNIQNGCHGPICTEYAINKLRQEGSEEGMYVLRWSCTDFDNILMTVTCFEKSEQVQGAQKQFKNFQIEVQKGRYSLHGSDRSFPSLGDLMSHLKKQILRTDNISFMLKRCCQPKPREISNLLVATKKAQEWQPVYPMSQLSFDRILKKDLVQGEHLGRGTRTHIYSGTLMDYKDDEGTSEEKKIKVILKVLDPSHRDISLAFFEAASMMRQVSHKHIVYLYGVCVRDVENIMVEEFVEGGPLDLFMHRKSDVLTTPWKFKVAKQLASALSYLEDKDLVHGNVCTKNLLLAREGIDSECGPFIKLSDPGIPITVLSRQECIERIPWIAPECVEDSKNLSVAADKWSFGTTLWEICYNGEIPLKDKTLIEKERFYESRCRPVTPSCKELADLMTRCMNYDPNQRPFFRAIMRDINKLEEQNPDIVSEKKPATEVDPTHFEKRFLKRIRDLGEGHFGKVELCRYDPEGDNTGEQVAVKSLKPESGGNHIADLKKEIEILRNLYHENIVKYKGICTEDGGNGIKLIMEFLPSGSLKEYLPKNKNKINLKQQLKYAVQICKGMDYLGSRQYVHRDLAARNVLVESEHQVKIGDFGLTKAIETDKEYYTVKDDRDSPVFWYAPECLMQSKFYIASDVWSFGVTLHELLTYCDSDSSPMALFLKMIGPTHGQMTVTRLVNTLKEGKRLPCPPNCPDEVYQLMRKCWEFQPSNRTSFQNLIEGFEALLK

Usually IC50 stands for the concentration that inhibits the measured activity by half. As a reminder, the CLint scaled is the capacity of the preparation to metabolise the compound, expressed as a volume cleared per time. As a reminder, the AUC(0-t) is exposure summed from dosing to a finite time, without extrapolation to infinity. Low values mean less exposure, high ones more exposure. In the case of `CCC1CN(c2ccc(C#N)nn2)CCC1Nc1nc(Nc2cc(C)n(C)n2)ncc1Cl` (centres unmarked) [Ex. 15, 6-(4-((5-chloro-2-((1,5-dimethyl-1H-pyrazol-3-yl)amino)pyrimidin-4-yl)amino)-3-ethylpiperidin-1-yl)pyridazine-3-carbonitrile], the IC50 against JAK1 (h) and against JAK2 (h) was 0.6 nM throughout. Besides, the half-life is 23.3 min in data set [1] (pH 7.4, 37° C., NADPH, read-out: Human T1/2); 35 min in data set [2] (pH 7.4, 37° C., NADPH, read-out: Rat T1/2); 45.6 min in data set [3] (setting [5]). Besides, the intrinsic metabolic clearance (CLint scaled) in data set [1] (setting [4]) was 74.5 mL/min/kg; in data set [2] (setting [4]) it was 71 mL/min/kg. Also, the “clearance (CL)” value in data set [3] (iv dosing, 1 mg/kg) is 8.67 mL/min/kg. The compound also registered a F in data set [3] (oral bioavailability) of 92.2%. This compound yielded an AUC(0-t) in data set [3] (setting [5]) of 1930 ng·h/mL. The Vd in data set [3] (rat, plasma, iv dosing, 1 mg/kg, read-out: Vss) was found to be 0.48 L/kg.

Values taken from patent US10059689B2, “Substituted heteroaryl compounds and methods of use” (Sunshine Lake Pharma Co., Ltd., priority 2014, dated 2018).
